Experimental data taken from patent US4835154A, “1-aralykyl-5-piperazinylmethyl-2-mercaptoimidazoles and 2-alkylthioimidazoles and their use as dopamine-βhydroxylase inhibitors” (SmithKline Beckman Corporation, priority 1987, dated 1989).

Columns and labels:
DBH [1] = biological target: T1, DBH (Homo sapiens, UniProt P09172); settings: literature reports; cited from earlier work
T1 sequence (P09172 1-617): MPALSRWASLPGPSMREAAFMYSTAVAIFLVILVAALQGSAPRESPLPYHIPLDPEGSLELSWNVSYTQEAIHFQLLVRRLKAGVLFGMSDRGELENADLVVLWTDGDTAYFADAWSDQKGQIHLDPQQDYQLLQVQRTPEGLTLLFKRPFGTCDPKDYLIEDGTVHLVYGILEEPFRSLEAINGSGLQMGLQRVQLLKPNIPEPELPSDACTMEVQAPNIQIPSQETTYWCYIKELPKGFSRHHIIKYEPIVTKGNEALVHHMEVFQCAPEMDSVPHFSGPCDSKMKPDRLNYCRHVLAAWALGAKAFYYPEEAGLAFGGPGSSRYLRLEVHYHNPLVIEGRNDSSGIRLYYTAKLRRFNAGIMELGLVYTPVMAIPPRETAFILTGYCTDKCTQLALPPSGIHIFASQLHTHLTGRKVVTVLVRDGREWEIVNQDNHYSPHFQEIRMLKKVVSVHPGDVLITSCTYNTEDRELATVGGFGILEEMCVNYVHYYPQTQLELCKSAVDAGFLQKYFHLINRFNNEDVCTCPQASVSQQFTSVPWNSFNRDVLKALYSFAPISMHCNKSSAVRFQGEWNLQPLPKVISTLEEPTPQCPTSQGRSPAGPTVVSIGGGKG

DBH [2] = biological target: T2, DBH (Bos taurus, UniProt P15101); assay: in vitro DBH inhibition, conversion of tyramine to octopamine; assay type: biochemical; settings: molar concentration of compound at which DBH activity was halved; octopamine assayed as p-hydroxybenzaldehyde at 330 nm
T2 sequence (P15101 1-610): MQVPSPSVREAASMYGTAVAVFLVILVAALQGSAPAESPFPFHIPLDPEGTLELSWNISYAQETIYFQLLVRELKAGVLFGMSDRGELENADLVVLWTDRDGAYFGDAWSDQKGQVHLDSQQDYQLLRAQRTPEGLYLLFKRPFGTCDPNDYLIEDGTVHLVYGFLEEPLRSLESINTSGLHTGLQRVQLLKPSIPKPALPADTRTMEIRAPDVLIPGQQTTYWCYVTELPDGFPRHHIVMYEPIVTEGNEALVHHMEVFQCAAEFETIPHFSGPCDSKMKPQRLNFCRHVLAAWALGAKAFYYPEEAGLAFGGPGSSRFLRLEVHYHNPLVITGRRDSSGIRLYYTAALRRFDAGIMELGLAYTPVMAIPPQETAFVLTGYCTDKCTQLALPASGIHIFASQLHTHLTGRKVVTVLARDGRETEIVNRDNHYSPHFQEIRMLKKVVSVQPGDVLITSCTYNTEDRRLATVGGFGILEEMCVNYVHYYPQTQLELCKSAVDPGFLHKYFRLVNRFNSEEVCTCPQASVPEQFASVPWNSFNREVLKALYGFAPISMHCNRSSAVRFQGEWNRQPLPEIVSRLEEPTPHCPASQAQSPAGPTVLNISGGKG
Method: Listed in Table I is the compound of the invention that was tested for in vitro DBH inhibition by a standard procedure for assaying conversion of tyramine to octopamine in the presence of DBH. J. J. Pisano, et al., Biochim. Biophys. Acta, 43, 566-568 (1960). Octopamine was assayed following sodium periodate oxidation to p-hydroxybenzaldehyde by measuring spectrophotometric absorbance at 330 nm. In Table I, inhibition is given in molar concentration of compound at which DBH activity was halved (IC50). Fusaric acid, by this test has an IC50 of 8×10^-7 M.

[3] = system: spontaneously hypertensive rats; assay: mean arterial blood pressure in spontaneously hypertensive rats; assay type: in vivo; settings: 50 mg/kg intraperitoneally, vs vehicle-treated controls
Method: Further, spontaneously hypertensive rats were treated with the compound in Table I at a dose of 50 mg/kg intraperitoneally, and mean arterial blood pressure was monitored for 260 minutes using indwelling cannulae in the tail arteries. […] The maximal blood pressure reduction was approximately 25 mmHg.

[4] = Teresawa et al., 1971; cited from earlier work
[5] = Ehrreich et al., 1976; cited from earlier work

Row | SMILES | DBH inhibition (in words) (DBH [1]) | other results
1 | NOCc1ccccc1 [Benzyloxyamine] | competitive inhibitors | 
2 | CN1CCN(Cc2cnc(S)n2Cc2cc(F)cc(F)c2)CC1 [Example 1, 1-(3,5-Difluorobenzyl)-5-[(4-methyl-1-piperazinyl)methyl]-2-mercaptoimidazole] |  | IC50 (DBH [2]): 590 µM; maximal blood pressure reduction ([3]; mean arterial blood pressure monitored for 260 minutes): approximately 25 mmHg; time to significant blood pressure reductions following treatment [3]: ≤ 30 min; blood pressure effect ([3]; within 30 minutes): significant blood pressure reductions
3 | CCCCc1ccc(C(=O)O)nc1 [Fusaric acid] |  | hepatotoxicity [4]: hepatotoxic
4 | NNCc1ccccc1 [benzylhydrazine] | competitive inhibitors | 
5 | CCCCc1ccc(C(N)=O)nc1 [Bupicomide, 5-(n-butyl)picolinamine] | DBH inhibitor | antihypertensive activity [5]: antihypertensive activity
6 | O=C(O)c1ccc(CCCCCl)cn1 [5-(4-chlorobutyl) picolinic acid] | inhibit DBH | 
7 | CN(C)C(=S)SCc1ccc(C(=O)O)nc1 [5-(dimethyldithiocarbamoylmethyl)picolinic acid] | DBH inhibitors | 
8 | O=C(O)c1ccc(CCC(Br)CBr)cn1 (stereo not drawn) [5-(3,4-dibromobutyl)picolinic acid] | DBH inhibitors | 
